In paper doi:10.1101/2025.07.07.663444v1, “Antifungal therapeutic potential of Candida albicans Fun30: screening and validation of novel inhibitors against Candida albicans” (biorxiv, 2025):

Key:
[1] = molecular target: T1, CaFun30 (Candida albicans, UniProt A0A1D8PTJ0); assay: biolayer interferometry (Octet R8, Ni-NTA sensor, protein immobilised); format: binding; conditions: PBS pH 7.4, 2 mM beta-mercaptoethanol; 1:1 model
T1 construct: gene FUN30; full length, cloned NheI/XhoI in pET21c(+), expressed in E. coli BL21(DE3) Rosetta, Ni-NTA purified
T1 sequence (A0A1D8PTJ0 1-1097): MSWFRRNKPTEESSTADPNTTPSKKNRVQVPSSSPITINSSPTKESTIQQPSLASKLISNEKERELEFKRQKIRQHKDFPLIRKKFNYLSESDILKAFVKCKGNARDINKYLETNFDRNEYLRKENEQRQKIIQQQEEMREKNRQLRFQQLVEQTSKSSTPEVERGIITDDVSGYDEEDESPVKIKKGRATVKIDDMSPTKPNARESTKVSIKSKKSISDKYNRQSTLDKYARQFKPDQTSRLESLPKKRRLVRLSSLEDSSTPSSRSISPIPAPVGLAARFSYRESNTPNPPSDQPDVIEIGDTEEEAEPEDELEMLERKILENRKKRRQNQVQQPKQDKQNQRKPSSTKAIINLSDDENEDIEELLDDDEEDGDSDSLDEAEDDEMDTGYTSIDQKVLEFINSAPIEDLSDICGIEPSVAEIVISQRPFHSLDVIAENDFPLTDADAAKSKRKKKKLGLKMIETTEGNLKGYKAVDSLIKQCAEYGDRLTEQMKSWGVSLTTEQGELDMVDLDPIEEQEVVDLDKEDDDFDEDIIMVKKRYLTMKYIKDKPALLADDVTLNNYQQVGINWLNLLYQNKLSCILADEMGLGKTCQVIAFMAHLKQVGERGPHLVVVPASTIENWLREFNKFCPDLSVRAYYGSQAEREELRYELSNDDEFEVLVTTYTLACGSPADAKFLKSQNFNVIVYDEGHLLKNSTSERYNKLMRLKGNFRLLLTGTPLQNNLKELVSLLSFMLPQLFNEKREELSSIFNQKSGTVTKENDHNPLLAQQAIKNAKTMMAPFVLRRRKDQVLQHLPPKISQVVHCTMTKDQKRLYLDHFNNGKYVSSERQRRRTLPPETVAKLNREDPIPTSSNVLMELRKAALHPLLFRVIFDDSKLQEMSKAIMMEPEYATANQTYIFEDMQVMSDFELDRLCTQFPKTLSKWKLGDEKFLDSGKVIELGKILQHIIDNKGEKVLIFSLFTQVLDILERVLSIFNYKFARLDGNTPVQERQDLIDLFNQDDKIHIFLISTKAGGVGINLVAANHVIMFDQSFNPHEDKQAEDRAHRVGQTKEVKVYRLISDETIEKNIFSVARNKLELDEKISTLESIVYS

[2] = molecular target: T2, CaFun30-c334 (Candida albicans, UniProt A0A1D8PTJ0); assay: as above; format: binding; conditions: PBS pH 7.4, 2 mM beta-mercaptoethanol; 1:1 model
T2 construct: gene FUN30; C-terminal fragment (RecA-like domain 2, motifs IV-VI, no ATPase activity), probably the last 334 residues; pCOLD I vector (N-terminal His tag implied), E. coli BL21(DE3) Rosetta, Ni-NTA purified
T2 sequence (A0A1D8PTJ0 764-1097): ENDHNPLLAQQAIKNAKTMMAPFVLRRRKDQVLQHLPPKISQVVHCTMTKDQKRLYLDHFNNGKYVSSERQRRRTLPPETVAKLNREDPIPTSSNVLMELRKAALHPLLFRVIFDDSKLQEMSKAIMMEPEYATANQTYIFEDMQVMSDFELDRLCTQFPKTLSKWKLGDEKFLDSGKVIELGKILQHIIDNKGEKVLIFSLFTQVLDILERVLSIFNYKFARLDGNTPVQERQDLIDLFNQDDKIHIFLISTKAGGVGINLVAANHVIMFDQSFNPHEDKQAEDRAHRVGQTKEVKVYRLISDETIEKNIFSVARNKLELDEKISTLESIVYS

Cc1ccc(NC(=O)CSc2nc(C(F)(F)F)cc(=O)[nH]2)cc1Cl [F2716-0594]
Kd [1]: 680 µM | Kd [2]: 25.1 µM

Cc1nnc2sc(SCC(=O)Nc3ccc(Cl)cc3)nn2c1=O [F1853-0039]
Kd [1]: 0.6 µM | Kd [2]: 0.87 µM

CCc1cc2c(=O)c(-c3ccc(F)cc3)c(C)oc2cc1OCc1ccccc1 [F1067-0218]
Kd [1]: 125 µM | Kd [2]: 18 µM
